Assay results taken from ChEMBL document CHEMBL1201862, “PubChem BioAssay data set” (2004).
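Dose response: 5 concentrations. Exposure: 48 h. Format: 96-well plates. Endpoint: linear interpolation; highest concentration if not reached. GI50: concentration for 50% inhibition of growth.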 Calls of active or inactive are those of the source. Rule as the data show it: active = GI50 up to about 1.1 µM and inactive = higher.

Key:
Assay in all cases: NCI tumour cell line growth inhibition, 48 h
CAKI-1 = tested on: CAKI-1
LOX IMVI = tested on: LOX IMVI
NCI-H23 = tested on: NCI-H23
MOLT-4 = tested on: MOLT-4
RPMI-8226 = tested on: RPMI-8226
OVCAR-3 = tested on: OVCAR-3
DU-145 = tested on: DU-145
TK-10 = tested on: TK-10
M14 = tested on: M14
SN12C = tested on: SN12C
PC-3 = tested on: PC-3
NCI/ADR-RES = tested on: NCI/ADR-RES
HCC 2998 = tested on: HCC 2998
CCRF-CEM = tested on: CCRF-CEM
SK-MEL-5 = tested on: SK-MEL-5
Hs-578T = tested on: Hs-578T
NCI-H460 = tested on: NCI-H460
SNB-19 = tested on: SNB-19
UO-31 = tested on: UO-31
IGROV-1 = tested on: IGROV-1

Structure (SMILES) | GI50 (CAKI-1) | GI50 (LOX IMVI) | GI50 (NCI-H23) | GI50 (MOLT-4) | GI50 (RPMI-8226) | GI50 (OVCAR-3) | GI50 (DU-145) | GI50 (TK-10) | GI50 (M14) | GI50 (SN12C) | GI50 (PC-3) | GI50 (NCI/ADR-RES) | GI50 (HCC 2998) | GI50 (CCRF-CEM) | GI50 (SK-MEL-5) | GI50 (Hs-578T) | GI50 (NCI-H460) | GI50 (SNB-19) | GI50 (UO-31) | GI50 (IGROV-1)
NC(CS)C(=O)NCCNc1ccc(NCCNC(=O)C(N)CS)c2c1C(=O)c1c(O)ccc(O)c1C2=O (stereo not given) | 24.3 nM (active) | 18.5 nM (active) | 11.5 nM (active) | < 1 nM (active) | 41.7 nM (active) | 405 nM (active) | 26.1 nM (active) | 667 nM (active) | 24.8 nM (active) | 8.36 nM (active) | 126 nM (active) | 126 nM (active) | 225 nM (active) | 1.49 nM (active) | 94.8 nM (active) | 137 nM (active) | < 1 nM (active) | 18.8 nM (active) | 31.3 nM (active) | 219 nM (active)
COc1ccc2nc3ccccc3c(NCCCN(C)CCCl)c2c1 | 231 nM (active) | 138 nM (active) | 135 nM (active) | < 13.3 nM (active) | 81.7 nM (active) | 682 nM (active) | 333 nM (active) | 859 nM (active) | 453 nM (active) | 160 nM (active) | 202 nM (active) | 313 nM (active) | 388 nM (active) | 64 nM (active) | 365 nM (active) | 188 nM (active) | 79.1 nM (active) | 601 nM (active) | 592 nM (active) | 328 nM (active)
COc1ccccc1N1CCN(CCCCNC(=O)c2ccc([N+](=O)[O-])o2)CC1 | 13400 nM (inactive) | 1120 nM (active) | 5790 nM (inactive) | 23100 nM (inactive) | 19100 nM (inactive) | 4520 nM (inactive) | 4760 nM (inactive) | 5900 nM (inactive) | 4050 nM (inactive) | 3270 nM (inactive) | 13600 nM (inactive) | 20000 nM (inactive) | 2420 nM (inactive) | 21100 nM (inactive) | 6750 nM (inactive) | 15500 nM (inactive) | 3430 nM (inactive) | 11800 nM (inactive) | 10400 nM (inactive) | 13700 nM (inactive)
C#CCOC(=O)c1ccc(OC(C)=O)cc1 | > 100000 nM (inactive) | > 100000 nM (inactive) | > 100000 nM (inactive) | > 100000 nM (inactive) | > 100000 nM (inactive) | > 100000 nM (inactive) | > 100000 nM (inactive) | > 100000 nM (inactive) | > 100000 nM (inactive) | > 100000 nM (inactive) | > 100000 nM (inactive) | > 100000 nM (inactive) | > 100000 nM (inactive) | > 100000 nM (inactive) | > 100000 nM (inactive) | > 100000 nM (inactive) | > 100000 nM (inactive) | > 100000 nM (inactive) | > 100000 nM (inactive) | > 100000 nM (inactive)
